Assay results as given in patent US12186433B2, “Nanocapsules comprising modified nucleobases and/or nucleosides, hydrogels and oleogels comprising them and uses thereof” (UNIVERSITE D'ANGERS, priority 2017, dated 2025).

What was measured:
B6-KPC3 cells = test: Cellular toxicity, MTS assay, B6-KPC3 cells; assay type: cell-based, mice; settings: B6-KPC3 cell line, Cyt-C16 2.5% (w/wLabrafac) at the LNC surface
Experimental: B6-KPC3 cells (pancreas tumor from transgenic KPC mice) (gift from the Department of Oncology and Surgical Sciences of Padova, Pr. Vincenzo Bronte), were grown in suspension at 37° C., 90% humidity, 5% CO2 in DMEM medium, completed with decomplemented FBS (10% v/v), penicillin (100 UI·mL^−1), streptomycin ([…]), amphotericin B ([…]), HEPES 10 mM (1% v/v), L-glutamin 2 mM (1% v/v), and β-mercaptoethanol 20 μM (1% v/v). The cells (3.5·10^3 cells/well in 200-μL medium) were then plated on a 96-well cell culture dish and left to grow for 48 h at 37° C. The cytotoxicitiy of diluted LNCs (diameter 50 or 100 nm), non-loaded or loaded with Cyt-C16 2.5% (w/wLabrafac), in cell culture medium, was determined. Fresh cell culture medium was used as controls. […] The number of living cells was determined using a MTS (3-(4,5-dimethylthiazol-2-yl)-5-(3-carboxymethoxyphenyl)-2-(4-sulfophenyl)-2H-tetrazolium salt) assay (colorimetric assay based on the conversion of a tetrazolium salt into formazan). Formazan absorbance was measured at 492 nm and 750 nm, directly from well plates using a spectrophotometer Multiscan Ascent® MP reader (Thermo Scientific, Courtaboeuf, France), after exposition to MTS (20 μL per well) for 2.5 h at 37° C. The percentage of cell viability was calculated according to the following equation: […]

THP-1 cells = test: Cellular toxicity, MTS assay, THP-1 cells; assay type: cell-based, human; settings: THP1 cell line, Cyt-C16 2.5% (w/wLabrafac) at the LNC surface
Experimental: THP-1 cells (human monocyte/macrophage cell line obtained from ATCC, Manassas, VA, USA) were grown in suspension at 37° C., 90% humidity, 5% CO2 in RPMI 1640 medium, completed with decomplemented FBS (10% v/v), penicillin (100 UI·mL^−1), streptomycin ([…]), amphotericin B ([…]), HEPES 10 mM (1% v/v), Pyruvate Sodium 100 mM (1% v/v) and β-mercaptoethanol 20 μM (1% v/v). Cell differentiation was induced in the same medium by adding PMA 200 nM. A 48-h incubation allows the cells to adhere (15·10^3 cells/well in a 96-well cell culture dish). After medium aspiration to eliminate non-adhered cells, cells were washed again with fresh medium.
B6-KPC3 cells (pancreas tumor from transgenic KPC mice) (gift from the Department of Oncology and Surgical Sciences of Padova, Pr. Vincenzo Bronte), were grown in suspension at 37° C., 90% humidity, 5% CO2 in DMEM medium, completed with decomplemented FBS (10% v/v), penicillin (100 UI·mL^−1), streptomycin ([…]), amphotericin B ([…]), HEPES 10 mM (1% v/v), L-glutamin 2 mM (1% v/v), and β-mercaptoethanol 20 μM (1% v/v). […] The cytotoxicitiy of diluted LNCs (diameter 50 or 100 nm), non-loaded or loaded with Cyt-C16 2.5% (w/wLabrafac), in cell culture medium, was determined. […] The percentage of cell viability was calculated according to the following equation: […]

[1] = Cyt-C16 concentration in the hydrogels of LNCs by LC-MS/MS; assay type: physicochemical; settings: LC-MS/MS recovery in hydrogels
Experimental: The Cyt-C16 concentrations in the hydrogels of LNCs were determined using a LC-MS/MS apparatus: Alliance® 295 system (Waters, Saint-Quentin-en-Yvelines, France) with a Zorbax—Eclipse XDB-C18 column 4.6×150 mm, 3.5 μm, (Agilent Technologies, Santa Clara, United States). The temperature was fixed to 25° C. The mobile phase consisted of methanol with formic acid 0.1% (v/v), at a flow rate of 0.8 mL·min^−1. The injection volume was 10 μL. The total HPLC effluent was directed into a Quattro Micro® triple quadrupole mass spectrometer (Waters Saint-Quentin-en-Yvelines, France). Ionization was achieved using turbo ion spray in positive ion mode. The mass spectrometer operated in multiple reactions monitoring (MRM) mode. The […] transitions for Cyt-C16 was 482>112 and 482>350. Cyt-C16 was diluted in methanol at concentration from 1.25 to 200 ng·mL^−1, in presence of non-loaded LNCs, for the calibration curve. A volume of 50 μL of hydrogels was dissolved with deionized water at 1:4000 (v/v), to obtain a complete dispersion of LNCs. Then, a volume of 100 μL was mixed with 900 μL of methanol. Quantification of Cyt-C16 was achieved after filtration of this solution on 0.22-μm filter.

[2] = phase-inversion process
Description: The LNCs formulation was based on a phase-inversion process, from oil-in-water emulsion at low temperature to water-in-oil emulsion at high temperature. The quantities of oil phase (Labrafac), aqueous phase (water and NaCl) and surfactants (Kolliphor and Span 80) for each formulation were precisely weighed. For 25 nm-diameter LNCs, mLabrafac=0.6 g, mKol=1.8 g, mSpan80=0.3 g, mWater=1.3 g and mNaCl=0.054 g; for 50 nm-diameter LNCs, mLabrafac=1.1168 g, mKol=0.9168 g, mSpan80=0.45 g, mWater=1.5168 g and mNaCl=0.054 g; for 75 nm-diameter LNCs, mLabrafac=1.8 g, mKol=1.3 g, mSpan80=0.3 g, mWater=0.6 g and mNaCl=0.054 g; for 100 nm-diameter LNCs, mLabrafac=1.8 g, mKol=0.95 g, mSpan80=0.3 g, mWater=0.95 g and mNaCl=0.054 g.
Then, Kolliphor and the aqueous phase were added and the mixture was heated to 75° C. under magnetic stirring followed by cooling to 45° C. (rate of 5° C.·min^−1). This cycle was repeated three times and during the last temperature decrease at the phase-inversion temperature (about 60° C.), an irreversible shock was induced by dilution with 2 mL of pure water. Afterwards, slow magnetic stirring was applied to the suspension of LNCs at room temperature, and a hydrogel was spontaneously formed. The gelation process was completed after 24 h at 4° C. Prior completed gelation, a part of the formulation was diluted by a factor of 60 (v/v) with pure water.

[3] = solubilized in Labrafac at 70° C., then cooling
Experimental: Cyt-C16 was solubilized in Labrafac at 70° C. under magnetic stirring. […] The viscoelastic properties of the oleogels (Cyt-016 from 0.005 to 0.2 mmol·g^−1 of Labrafac, corresponding to Cyt-C16 from 0.25 to 9.95% (w/wLabrafac)), at 25° C. were measured using a Kinexus® rheometer (Malvern Instruments S.A., United Kingdom), with a plate plate geometry (diameter 20 mm, gap: 800 μm). The oleogels were deposited directly on the bottom plate geometry of the rheometer and the top plate geometry was placed in contact with the sample. Oscillatory strain sweeps at 1 Hz constant frequency were performed to determine the linear regime characterized by constant dynamic moduli (elastic: G′ and viscous: G″ moduli), independent of the strain amplitude. In this regime (0.01% constant shear strain), G′ and G′ were measured as a function of angular frequency (0.1 to 10 Hz). In addition, a temperature ramp from 25 to 70° C. (2° C.·min^−1) was performed at 0.01% constant shear strain and 1 Hz constant angular frequency. All these experiments were repeated in triplicate.

CCCCCCCCCCCCCCCC(=O)Nc1ccn([C@@H]2O[C@H](CO)[C@@H](O)[C@H]2O)c(=O)n1 [Cyt-C16, 4-(N)-palmitoyl cytidine]
additional cytotoxicity in comparison to native LNCs (B6-KPC3 cells): does not cause additional cytoxicity | additional cytotoxicity in comparison to native LNCs (THP-1 cells): does not cause additional cytoxicity | degradation of the molecule by the formulation process [1]: does not degrade | effect of adding Cyt-C16 to the LNC formulation process [2]: the LNCs suspension turned into a hydrogel | oil gelation of Labrafac after cooling [3]: led to the oil gelation after cooling
